In patent publication US10716765B2, “Delivery of functional compounds” (Intercontinental Great Brands LLC, priority 2009, dated 2020):

Experiments:
[1] = versus linalool and thymol, FIG. 3; cited from earlier work
[2] = Evaluation of emulsifiers in oil-in-water emulsion of essential oil blend; assay type: physicochemical; details: compared with other emulsifiers
Source text: Various emulsifiers were combined with deionized water at 60 C to produce 2% solutions. The resulting solutions were combined with an essential oil blend composition (4% alpha-pinene, 30% para-cymene, 7% linalool, and 35% thymol and 24% soybean oil) in a 50:50 weight ratio with deionized water to create an oil-in-water emulsion. The emulsifiers evaluated were Glycosperse S-20 KFG (Lonza; Fairlawn, N.J.), Polyaldo 10-1-O KFG (Lonza; Fairlawn, N.J.), Aldosperse MS-20 KFG (Lonza; Fairlawn, N.J.), Polyaldo 10-2-P KFG (Lonza; Fairlawn, N.J.), Ryoto sugar ester (S-1570, Mitsubishi-Kagaku Food Corp.; Tokyo, Japan), Precept 8120 (Central Soya; Fort Wayne, Ind.) and sodium caseinate (Alanate-180, New Zealand Dairy Board; Wellington, New Zealand).

[3] = In vitro digestion model simulating stomach and small intestine conditions; assay type: in vitro ADME
Source text: This example compares the release of the non-esterified functional ingredient to the esterified functional ingredient during a simulated gastrointestinal study using an in vitro digestion model.
In addition, the partition coefficients for the ester compounds are greater than the parent compounds. These factors indicate that the ester compounds have a greater affinity for the hydrophobic carrier and insoluble matrix material than the parent compounds. […] The reduced rate is most evident when comparing linalool and thymol release from FIG. 4 to linalyl acetate and thymyl acetate release from FIG. 5. This improvement in stability within the model stomach implies increased stability in other low pH systems, such as acidic beverages, and further illustrates the importance of the esters for successful microencapsulation and enteric release of the functional ingredients.
As evident in FIGS. 4 and 5, the gastric release rate was reduced, as well as the release rate from 0-24.5 h, representative of the residence time in the small intestine. FIGS. 6 and 7 show the release rates of two esters of linalool, linalyl acetate in FIG. 6 and linalyl butyrate in FIG. 7 within a digestion model simulating stomach and small intestine conditions and residence times. In addition, the levels of the parent compounds present in the digestion model over time were measured. […]

emulsion stability ([2]; after 24 hours storage at room temperature) | Compound | partition coefficient compared with parent compounds [1] | solubility in water compared with parent compounds [1] | oil droplets within the emulsion ([2]; 2% emulsifier solution, 50:50 with essential oil blend) | hydrolysis of the ester to linalool [3]
– | CC(=O)Oc1cc(C)ccc1C(C)C [thymyl acetate] | greater | significantly lower | – | –
greatest stability | sucrose stearate [Example S-1570] | – | – | smallest and most uniformly dispersed oil droplets | –
– | C=CC(C)(CCC=C(C)C)OC(C)=O (stereo not shown) [linalyl acetate] | greater | significantly lower | – | about 33%
– | C=CC(C)(CCC=C(C)C)OC(=O)CCC (stereo not shown) [linalyl butyrate] | greater | significantly lower | – | about 5%
